Structures are written as SMILES.

The target in this experiment is T1, epithelial sodium channel (ENaC) (Mus musculus, UniProt Q61180+Q9WU38+Q9WU39).
T1 construct: Mouse kidney M-1 cells were cultivated in DMEM; endogenous in cells; host or cells: mouse kidney M-1 cells (cortical collecting duct line), dexamethasone-treated, on transwell filters
T1 sequence (Q61180 1-699): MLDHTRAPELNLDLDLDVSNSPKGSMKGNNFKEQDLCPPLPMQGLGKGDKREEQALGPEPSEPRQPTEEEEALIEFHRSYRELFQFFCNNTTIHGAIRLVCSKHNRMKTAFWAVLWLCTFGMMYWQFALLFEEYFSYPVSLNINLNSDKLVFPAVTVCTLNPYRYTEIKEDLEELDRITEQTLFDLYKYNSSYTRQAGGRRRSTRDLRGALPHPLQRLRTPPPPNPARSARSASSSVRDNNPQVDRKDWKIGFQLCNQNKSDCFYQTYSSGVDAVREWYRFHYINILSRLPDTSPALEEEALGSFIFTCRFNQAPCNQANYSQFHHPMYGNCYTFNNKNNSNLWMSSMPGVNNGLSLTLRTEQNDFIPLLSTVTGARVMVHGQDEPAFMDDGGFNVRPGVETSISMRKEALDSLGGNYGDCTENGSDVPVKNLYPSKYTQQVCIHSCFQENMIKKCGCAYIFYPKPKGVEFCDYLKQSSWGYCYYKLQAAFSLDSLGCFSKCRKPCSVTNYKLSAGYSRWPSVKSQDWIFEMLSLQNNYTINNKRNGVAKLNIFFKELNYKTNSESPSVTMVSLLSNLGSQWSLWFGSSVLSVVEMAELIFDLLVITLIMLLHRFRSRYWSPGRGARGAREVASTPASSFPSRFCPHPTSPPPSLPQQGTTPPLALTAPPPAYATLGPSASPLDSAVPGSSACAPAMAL
T1 sequence (Q9WU38 1-638): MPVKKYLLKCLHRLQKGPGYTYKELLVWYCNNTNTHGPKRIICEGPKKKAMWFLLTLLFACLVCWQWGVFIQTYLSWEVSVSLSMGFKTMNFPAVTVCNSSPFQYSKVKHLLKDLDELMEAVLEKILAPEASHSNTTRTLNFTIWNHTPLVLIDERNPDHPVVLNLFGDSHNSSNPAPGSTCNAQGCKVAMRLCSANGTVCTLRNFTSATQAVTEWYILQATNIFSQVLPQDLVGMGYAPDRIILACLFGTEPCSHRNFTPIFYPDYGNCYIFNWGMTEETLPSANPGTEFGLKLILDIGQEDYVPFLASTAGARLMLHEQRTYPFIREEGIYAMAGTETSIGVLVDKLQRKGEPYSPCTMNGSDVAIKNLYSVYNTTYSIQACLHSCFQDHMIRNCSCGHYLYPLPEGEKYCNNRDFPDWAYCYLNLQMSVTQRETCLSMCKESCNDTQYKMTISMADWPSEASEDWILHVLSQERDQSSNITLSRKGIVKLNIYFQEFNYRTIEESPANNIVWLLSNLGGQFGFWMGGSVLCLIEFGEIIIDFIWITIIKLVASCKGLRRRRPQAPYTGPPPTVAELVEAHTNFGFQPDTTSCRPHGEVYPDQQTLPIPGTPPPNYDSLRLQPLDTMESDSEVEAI
T1 sequence (Q9WU39 1-655): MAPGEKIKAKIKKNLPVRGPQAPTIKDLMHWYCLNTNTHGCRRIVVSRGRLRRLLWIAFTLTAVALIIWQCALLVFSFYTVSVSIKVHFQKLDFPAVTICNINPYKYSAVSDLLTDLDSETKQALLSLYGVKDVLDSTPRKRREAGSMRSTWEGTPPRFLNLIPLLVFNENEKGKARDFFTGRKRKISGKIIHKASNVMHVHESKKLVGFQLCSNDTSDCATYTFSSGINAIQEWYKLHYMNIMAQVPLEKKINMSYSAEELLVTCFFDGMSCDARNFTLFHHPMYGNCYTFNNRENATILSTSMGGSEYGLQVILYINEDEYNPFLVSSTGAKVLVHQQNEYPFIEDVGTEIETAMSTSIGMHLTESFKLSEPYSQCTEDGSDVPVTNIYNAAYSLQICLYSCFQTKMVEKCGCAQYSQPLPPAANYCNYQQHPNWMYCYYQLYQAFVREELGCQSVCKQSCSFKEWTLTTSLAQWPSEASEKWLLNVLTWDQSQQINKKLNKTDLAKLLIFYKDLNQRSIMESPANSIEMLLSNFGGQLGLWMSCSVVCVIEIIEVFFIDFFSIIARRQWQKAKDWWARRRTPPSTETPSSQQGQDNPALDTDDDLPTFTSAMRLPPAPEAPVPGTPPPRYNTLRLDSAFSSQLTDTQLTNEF
Nature of the experiment: Ussing Chamber assay: inhibition of amiloride sensitive short circuit current (I_sc) in M-1 cells. The class given is cell-based. Particulars: Ussing Chamber; mouse kidney M-1 cells on transwell filters; short circuit current; compound added to apical solution; 37° C.; read-out: IC50. As to the method:
Ussing Chamber: Mouse kidney M-1 cells were cultivated in DMEM containing 5% FCS and 5 μM dexamethasone for 10 to 12 days on polyester transwell filters. Filters were inserted into a teflon-coated well-plate which fit into the in-house ussing chamber system. Prior to measurement the medium of M-1 cells was replaced with Caco-2 transport buffer (Invitrogen, Germany). During measurements, the Ussing chamber temperature was kept at 37° C. Short circuit currents (I_sc) were measured in the voltage-clamp mode using an in-house built amplifier (Boehringer Ingelheim, Biberach) with the software package Lab View for data acquisition and analysis. The transepithelial electrical resistance (TEER) was determined by the application of voltage steps of ±5 mV every 5 sec. Compounds were administered at a final concentration of 3 μM or at increasing concentrations (e.g. 1-3-10 μM) to the apical solution. At the end of each experiment the amiloride sensitive I_SC was measured by adding 3 μM amiloride to the apical compartment. Results are expressed as inhibition in percent of the amiloride effect or as IC50.
With the example compounds given above, the following IC50 values were determined in the Ussing Chamber assay: […]
One may read the IC50 as the concentration needed to halve the response being measured. As to `CC(C)NC(=O)CN1CCC(NC(N)=NC(=O)c2nc(Cl)c(N)nc2N)CC1` [Example 6.7], the IC50 is 3 nM.

Take `COC(=O)CCN1CCC(NC(=N)NC(=O)c2nc(Cl)c(N)nc2N)CC1` [Example 4.1]: the IC50 turned out to be 19 nM.

Turning to `COCCOCCOCCOCCN1CCC(NC(N)=NC(=O)c2nc(Cl)c(N)nc2N)CC1` [Example 4.12], the IC50 was 55 nM.

With `CC(=O)N(CCCN(C)C)c1ccc(NC(=O)CN2CCC(NC(N)=NC(=O)c3nc(Cl)c(N)nc3N)CC2)cc1` [Example 1.10], the IC50 amounted to 1 nM.

Regarding `NC(=NC(=O)c1nc(Cl)c(N)nc1N)NC1CCN(CC(=O)Nc2ccc(S(N)(=O)=O)cc2)CC1` [Example 1.4], the half-maximal inhibitory concentration (IC50) stood at 2 nM.

Consider `COCCN(CCOC)C(=O)CN1CCC(NC(N)=NC(=O)c2nc(Cl)c(N)nc2N)CC1` [Example 6.2], for which the IC50 was 27 nM.

For the compound `CC(C)(C)OC(=O)C1CCN(C(=O)CN2CCC(NC(N)=NC(=O)c3nc(Cl)c(N)nc3N)CC2)CC1` [Example 4.24], the IC50 was found to be 17 nM.

For `NC(=NC(=O)c1nc(Cl)c(N)nc1N)NC1CCN(CC(=O)NCC(=O)O)CC1` [Example 5.2], the IC50 came to 80 nM.

Turning to `NC(=NC(=O)c1nc(Cl)c(N)nc1N)NC1CCN(CC(=O)Nc2ccc(CN3CCCCC3)cc2)CC1` [Example 1.8], the IC50 worked out at 1 nM.

In the case of `NC(=NC(=O)c1nc(Cl)c(N)nc1N)NC1CCN(CC(=O)NCc2ccc(S(N)(=O)=O)cc2)CC1` [Example 1.26], the IC50 stood at 3 nM.

On to `CCOC(=O)C(C(=O)OCC)N1CCC(NC(N)=NC(=O)c2nc(Cl)c(N)nc2N)CC1` [Example 4.19], for which the half-inhibitory concentration (IC50) is 9 nM.

Turning to `NC(=NC(=O)c1nc(Cl)c(N)nc1N)NC1CCN(CC(=O)NC2CCOCC2)CC1` [Example 1.29], the IC50 amounted to 8 nM.

Take `CCS(=O)(=O)CCN1CCC(NC(N)=NC(=O)c2nc(Cl)c(N)nc2N)CC1` [Example 4.3]: the IC50 worked out at 10 nM.

Turning to `Cn1ccc(NC(=O)CN2CCC(NC(N)=NC(=O)c3nc(Cl)c(N)nc3N)CC2)cc1=O` [Example 1.15], the IC50 was 4 nM.

For `CCCCNC(=O)CN1CCC(NC(N)=NC(=O)c2nc(Cl)c(N)nc2N)CC1` [Example 6.6], the half-inhibitory concentration (IC50) is 1 nM.

With `COC(=O)c1cccc(CNC(=O)CN2CCC(NC(N)=NC(=O)c3nc(Cl)c(N)nc3N)CC2)c1` [Example 6.5], the IC50 was 6 nM.

For `NC(=NC(=O)c1nc(Cl)c(N)nc1N)NC1CCN(CC(=O)Nc2cccc(S(=O)(=O)O)c2)CC1` [Example 1.20], the IC50 was found to be 17 nM.

In the case of `COC(=O)Cn1ccc(NC(=O)CN2CCC(NC(N)=NC(=O)c3nc(Cl)c(N)nc3N)CC2)cc1=O` [Example 1.16], the IC50 stood at 18 nM.

In the case of `CS(=O)(=O)c1ccc(CNC(=O)CN2CCC(NC(N)=NC(=O)c3nc(Cl)c(N)nc3N)CC2)cc1` [Example 1.25], the 50% inhibitory concentration (IC50) was found to be 3 nM.

Regarding `CCN1CCC(NC(N)=NC(=O)c2nc(Cl)c(N)nc2N)CC1` [Example 4.14], the IC50 is 53 nM.

On to `NC(=NC(=O)c1nc(Cl)c(N)nc1N)NC1CCN(CC(=O)NCc2nccs2)CC1` [Example 6.11], for which the IC50 worked out at 3 nM.

Regarding `CN1CCC(N(C)C(=O)c2ccc(NC(=O)CN3CCC(NC(N)=NC(=O)c4nc(Cl)c(N)nc4N)CC3)cc2)CC1` [Example 1.5], the IC50 was determined as 6 nM.

Take `CC(C)(C)OC(=O)CN1CCC(NC(N)=NC(=O)c2nc(Cl)c(N)nc2N)CC1` [Example 4.18]: the half-inhibitory concentration (IC50) is 3 nM.

For `NC(=NC(=O)c1nc(Cl)c(N)nc1N)NC1CCN(C(C(=O)NCc2ccccc2)C(=O)NCc2ccccc2)CC1` [Example 4.20], the IC50 amounted to 10 nM.

Regarding `CCOC(=O)CNC(=O)CN1CCC(NC(N)=NC(=O)c2nc(Cl)c(N)nc2N)CC1` [Example 4.4], the IC50 amounted to 11 nM.

Regarding `NC(=NC(=O)c1nc(Cl)c(N)nc1N)NC1CCN(CC(=O)NCc2ccccc2SC(F)(F)F)CC1` [Example 6.3], the IC50 stood at 1 nM.

As for `COc1ccc(CNC(=O)CN2CCC(N/C(N)=N/C(=O)c3nc(Cl)c(N)nc3N)CC2)cc1` [Example 6.1], the concentration for half-maximal inhibition (IC50) is 5 nM.

With `NC(=NC(=O)c1nc(Cl)c(N)nc1N)NC1CCN(CCCS(=O)(=O)O)CC1` [Example 4.23], the IC50 was 147 nM.

On to `NC(=NC(=O)c1nc(Cl)c(N)nc1N)NC1CCN(CC(=O)Nc2cccc(CN3CCOCC3)c2)CC1` [Example 1.9], for which the concentration for half-maximal inhibition (IC50) was determined as 1 nM.

As for `NC(=NC(=O)c1nc(Cl)c(N)nc1N)NC1CCN(CC2CCCC2)CC1` [Example 4.13], the 50% inhibitory concentration (IC50) was 30 nM.

As to `N#CCN1CCC(NC(=N)NC(=O)c2nc(Cl)c(N)nc2N)CC1` [Example 7.1], the IC50 stood at 35 nM.

In the case of `CN1CCC(CN2CCC(NC(N)=NC(=O)c3nc(Cl)c(N)nc3N)CC2)CC1` [Example 4.17], the concentration for half-maximal inhibition (IC50) was determined as 72 nM.

The values above are taken from US9078909B2, “Tertiary amines, medicaments containing said amines, use thereof and processes for the preparation thereof” (Boehringer Ingelheim International GmbH, priority 2012, dated 2015).
